In one assay the target is T1, PDE4B1 (Homo sapiens, UniProt Q07343).
T1 construct: made in house; host or cells: SF21 insect cells (baculovirus; virus made in SF9 cells, pCR-Bac vector)
As to the kind of experiment: Inhibition of PDE4 activity (PDE4B1, SPA assay). To be noted: recombinant PDE4B1, 0.5 μM cAMP; read-out: PDE4B1 Inhibitory values measured as -logIC50 (converted). The assay is classed as biochemical. Summed up:
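Read-out is SPA yttrium silicate bead scintillation after IBMX-containing beads stop the reaction. Insect-cell (SF21) lysate enzyme hydrolysed 0.5 μM [3H]cAMP at pH 7.4 with 5 mM Mg2+ for 15 min after a 5 min 37 °C preincubation; IC50 fitted by non-linear regression.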

In another assay the target is T2, human PDE5 (Homo sapiens, UniProt O76074).
T2 construct: from tissue; host or cells: human platelets from fresh donor blood (platelet lysate)
As to the kind of experiment: Inhibition of PDE5 activity (platelet lysate, SPA assay). The conditions noted are these: 0.5 μM cGMP, read-out: PDE5 Inhibitory values measured as -logIC50 (converted). The assay is classed as biochemical. Put shortly:
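SPA readout of [3H]cGMP hydrolysis (0.5 μM, 15 min, 37 °C after 5 min preincubation), stopped with yttrium silicate beads containing IBMX. Enzyme was lysate from human platelets, used at 10–20% substrate turnover, with PDE3 (motapizone 1 μM) and PDE2 (10 nM) blockers present. IC50 values fitted non-linearly from concentration-effect curves.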

14 compounds from US20160108049A1 (TAKEDA Gmbh, priority 2011, published 2016) can be followed below.

A value given as a limit tells only on which side of the number the result lay.

T1 sequence (Q07343 whole entry): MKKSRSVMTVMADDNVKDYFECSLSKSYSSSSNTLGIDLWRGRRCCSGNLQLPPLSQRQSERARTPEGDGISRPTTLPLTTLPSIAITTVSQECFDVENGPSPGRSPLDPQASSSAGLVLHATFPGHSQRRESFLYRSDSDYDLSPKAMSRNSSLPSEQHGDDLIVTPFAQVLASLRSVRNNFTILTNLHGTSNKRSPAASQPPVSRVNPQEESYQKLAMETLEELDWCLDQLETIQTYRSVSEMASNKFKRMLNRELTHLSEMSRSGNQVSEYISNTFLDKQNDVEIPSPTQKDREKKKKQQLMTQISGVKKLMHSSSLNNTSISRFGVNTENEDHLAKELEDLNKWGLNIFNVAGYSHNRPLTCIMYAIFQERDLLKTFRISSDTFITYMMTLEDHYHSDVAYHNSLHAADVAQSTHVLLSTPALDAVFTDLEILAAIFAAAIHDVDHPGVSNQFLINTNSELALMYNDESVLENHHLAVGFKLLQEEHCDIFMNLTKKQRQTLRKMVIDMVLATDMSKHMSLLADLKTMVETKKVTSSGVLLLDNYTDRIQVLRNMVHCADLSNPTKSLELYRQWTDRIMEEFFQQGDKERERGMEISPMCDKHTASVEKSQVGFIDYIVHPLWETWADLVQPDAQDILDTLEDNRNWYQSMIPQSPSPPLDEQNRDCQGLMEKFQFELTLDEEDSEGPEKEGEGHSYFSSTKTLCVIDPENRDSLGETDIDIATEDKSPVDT

Regarding `COc1ccc(C2=NN(C3CCN(C(=O)[C@H](Cc4cccs4)NC(=O)c4c(C)[nH]c5c(-c6c(OCC7CC7)ccc7c6OCO7)ncnc45)CC3)C(=O)[C@@H]3CCCC[C@H]23)cc1OC` [Example 74, 4-[5-(cyclopropylmethoxy)-1,3-benzodioxol-4-yl]-N-[(2S)-1-{4-[(4aS,8aR)-4-(3,4-dimethoxyphenyl)-1-oxo-4a,5,6,7,8,8a-hexahydrophthalazin-2(1H)-yl]piperidin-1-yl}-1-oxo-3-(thiophen-2-yl)propan-2-yl]-6-methyl-5H-pyrrolo[3,2-d]pyrimidine-7-carboxamide], the IC50 on PDE4B1 and at human PDE5 was less than 1 nM each time.
Turning to `COc1ccc(C2=NN(C3CCN(C(=O)[C@H](Cc4cccs4)NC(=O)c4c[nH]c5c(-c6c(OCC7CC7)ccc7c6OCO7)ncnc45)CC3)C(=O)[C@@H]3CCCC[C@H]23)cc1OC` [Example 75, 4-[5-(cyclopropylmethoxy)-1,3-benzodioxol-4-yl]-N-[(2S)-1-{4-[(4aS,8aR)-4-(3,4-dimethoxyphenyl)-1-oxo-4a,5,6,7,8,8a-hexahydrophthalazin-2(1H)-yl]piperidin-1-yl}-1-oxo-3-(thiophen-2-yl)propan-2-yl]-5H-pyrrolo[3,2-d]pyrimidine-7-carboxamide], the IC50 on PDE4B1 was less than 1 nM; at human PDE5 it was 1 to 10 nM.
As for `COc1ccc(C2=NN(C3CCN(C(=O)CCNC(=O)c4c[nH]c5c(-c6c(OCC7CC7)ccc7c6OCO7)ncnc45)CC3)C(=O)[C@@H]3CCCC[C@H]23)cc1OC` [Example 76, 4-[5-(cyclopropylmethoxy)-1,3-benzodioxol-4-yl]-N-(3-{4-[(4aS,8aR)-4-(3,4-dimethoxyphenyl)-1-oxo-4a,5,6,7,8,8a-hexahydrophthalazin-2(1H)-yl]piperidin-1-yl}-3-oxopropyl)-5H-pyrrolo[3,2-d]pyrimidine-7-carboxamide], the IC50 at PDE4B1 and on human PDE5 was 1 to 10 nM throughout.
For the compound `COc1ccc(C2=NN(C3CCN(C(=O)C[C@@H](Cc4ccccc4)NC(=O)c4c[nH]c5c(-c6c(OCC7CC7)ccc7c6OCO7)ncnc45)CC3)C(=O)[C@@H]3CCCC[C@H]23)cc1OC` [Example 77, 4-[5-(cyclopropylmethoxy)-1,3-benzodioxol-4-yl]-N-[(2R)-4-{4-[(4aS,8aR)-4-(3,4-dimethoxyphenyl)-1-oxo-4a,5,6,7,8,8a-hexahydrophthalazin-2(1H)-yl]piperidin-1-yl}-4-oxo-1-phenylbutan-2-yl]-5H-pyrrolo[3,2-d]pyrimidine-7-carboxamide], the IC50 at PDE4B1 and at human PDE5 was 1 to 10 nM each time.
`COc1ccc(C2=NN(C3CCN(C(=O)C[C@@H](Cc4ccccc4)NC(=O)c4c[nH]c5c(-c6c(OCC7CC7)ccc7c6OCO7)ncnc45)CC3)C(=O)C(C)(C)C2)cc1OC` [Example 78, 4-[5-(cyclopropylmethoxy)-1,3-benzodioxol-4-yl]-N-[(2R)-4-{4-[3-(3,4-dimethoxyphenyl)-5,5-dimethyl-6-oxo-5,6-dihydropyridazin-1(4H)-yl]piperidin-1-yl}-4-oxo-1-phenylbutan-2-yl]-5H-pyrrolo[3,2-d]pyrimidine-7-carboxamide]: the IC50 on PDE4B1 and at human PDE5 was 1 to 10 nM in each case.
Consider `COc1ccc(C2=NN(C3CCN(C(=O)[C@H](CCC(=O)N4CCCCC4)NC(=O)c4c[nH]c5c(-c6c(OCC7CC7)ccc7c6OCO7)ncnc45)CC3)C(=O)[C@@H]3CCCC[C@H]23)cc1OC` [Example 79, 4-[5-(cyclopropylmethoxy)-1,3-benzodioxol-4-yl]-N-[(2S)-1-{4-[(4aS,8aR)-4-(3,4-dimethoxyphenyl)-1-oxo-4a,5,6,7,8,8a-hexahydrophthalazin-2(1H)-yl]piperidin-1-yl}-1,5-dioxo-5-(piperidin-1-yl)pentan-2-yl]-5H-pyrrolo[3,2-d]pyrimidine-7-carboxamide], for which the IC50 at PDE4B1 and at human PDE5 was 1 to 10 nM each time.
As for `COc1ccc(C2=NN(C3CCN(C(=O)[C@H](CCC(=O)N4CCCCC4)NC(=O)c4c(C)[nH]c5c(-c6c(OCC7CC7)ccc7c6OCO7)ncnc45)CC3)C(=O)[C@@H]3CCCC[C@H]23)cc1OC` [Example 83, 4-[5-(cyclopropylmethoxy)-1,3-benzodioxol-4-yl]-N-[(2S)-1-{4-[(4aS,8aR)-4-(3,4-dimethoxyphenyl)-1-oxo-4a,5,6,7,8,8a-hexahydrophthalazin-2(1H)-yl]piperidin-1-yl}-1,5-dioxo-5-(piperidin-1-yl)pentan-2-yl]-6-methyl-5H-pyrrolo[3,2-d]pyrimidine-7-carboxamide], the IC50 is 1 to 10 nM at PDE4B1 and less than 1 nM on human PDE5.
Regarding `COc1cc(OCC2CC2)c(-c2ncnc3c(C(=O)N[C@@H](CCC(=O)N4CCCCC4)C(=O)N4CCC(N5N=C(c6ccc(OC)c(OC)c6)[C@H]6CCCC[C@H]6C5=O)CC4)c(C)[nH]c23)cc1F` [Example 84, 4-[2-(cyclopropylmethoxy)-5-fluoro-4-methoxyphenyl]-N-[(2S)-1-{4-[(4aS,8aR)-4-(3,4-dimethoxyphenyl)-1-oxo-4a,5,6,7,8,8a-hexahydrophthalazin-2(1H)-yl]piperidin-1-yl}-1,5-dioxo-5-(piperidin-1-yl)pentan-2-yl]-6-methyl-5H-pyrrolo[3,2-d]pyrimidine-7-carboxamide], the results for the IC50 at PDE4B1 and on human PDE5 were 1 to 10 nM and less than 1 nM, respectively.
`COc1ccc(C2=NN(C3CCN(C(=O)[C@@H](Cc4cscn4)NC(=O)c4c[nH]c5c(-c6c(OCC7CC7)ccc7c6OCO7)ncnc45)CC3)C(=O)[C@@H]3CCCC[C@H]23)cc1OC` [Example 85, 4-[5-(cyclopropylmethoxy)-1,3-benzodioxol-4-yl]-N-[(2R)-1-{4-[(4aS,8aR)-4-(3,4-dimethoxyphenyl)-1-oxo-4a,5,6,7,8,8a-hexahydrophthalazin-2(1H)-yl]piperidin-1-yl}-1-oxo-3-(1,3-thiazol-4-yl)propan-2-yl]-5H-pyrrolo[3,2-d]pyrimidine-7-carboxamide]: the IC50 at PDE4B1 and at human PDE5 was less than 1 nM each time.
Regarding `COc1ccc(C2=NN(C3CCN(C(=O)[C@H](Cn4cccn4)NC(=O)c4c[nH]c5c(-c6c(OCC7CC7)ccc7c6OCO7)ncnc45)CC3)C(=O)[C@@H]3CCCC[C@H]23)cc1OC` [Example 88, 4-[5-(cyclopropylmethoxy)-1,3-benzodioxol-4-yl]-N-[(2S)-1-{4-[(4aS,8aR)-4-(3,4-dimethoxyphenyl)-1-oxo-4a,5,6,7,8,8a-hexahydrophthalazin-2(1H)-yl]piperidin-1-yl}-1-oxo-3-(1H-pyrazol-1-yl)propan-2-yl]-5H-pyrrolo[3,2-d]pyrimidine-7-carboxamide], the IC50 at PDE4B1 and on human PDE5 was 1 to 10 nM throughout.
As for `COc1ccc(C2=NN(C3CCN(C(=O)[C@@H](Cc4c[nH]cn4)NC(=O)c4c[nH]c5c(-c6c(OCC7CC7)ccc7c6OCO7)ncnc45)CC3)C(=O)[C@@H]3CCCC[C@H]23)cc1OC` [Example 89, 4-[5-(cyclopropylmethoxy)-1,3-benzodioxol-4-yl]-N-[(2R)-1-{4-[(4aS,8aR)-4-(3,4-dimethoxyphenyl)-1-oxo-4a,5,6,7,8,8a-hexahydrophthalazin-2(1H)-yl]piperidin-1-yl}-3-(1H-imidazol-4-yl)-1-oxopropan-2-yl]-5H-pyrrolo[3,2-d]pyrimidine-7-carboxamide], the IC50 on PDE4B1 and on human PDE5 was less than 1 nM each time.
On to `COc1ccc(C2=NN(C3CCN(C(=O)[C@H](Cc4c[nH]cn4)NC(=O)c4c[nH]c5c(-c6c(OCC7CC7)ccc7c6OCO7)ncnc45)CC3)C(=O)[C@@H]3CCCC[C@H]23)cc1OC` [Example 90, 4-[5-(cyclopropylmethoxy)-1,3-benzodioxol-4-yl]-N-[(2S)-1-{4-[(4aS,8aR)-4-(3,4-dimethoxyphenyl)-1-oxo-4a,5,6,7,8,8a-hexahydrophthalazin-2(1H)-yl]piperidin-1-yl}-3-(1H-imidazol-4-yl)-1-oxopropan-2-yl]-5H-pyrrolo[3,2-d]pyrimidine-7-carboxamide], for which the IC50 at PDE4B1 and at human PDE5 was less than 1 nM throughout.
With `COc1ccc(C2=NN(C3CCN(C(=O)[C@@H](Cc4c[nH]c5ccccc45)NC(=O)c4c[nH]c5c(-c6c(OCC7CC7)ccc7c6OCO7)ncnc45)CC3)C(=O)[C@@H]3CCCC[C@H]23)cc1OC` [Example 91, 4-[5-(cyclopropylmethoxy)-1,3-benzodioxol-4-yl]-N-[(2R)-1-{4-[(4aS,8aR)-4-(3,4-dimethoxyphenyl)-1-oxo-4a,5,6,7,8,8a-hexahydrophthalazin-2(1H)-yl]piperidin-1-yl}-3-(1H-indol-3-yl)-1-oxopropan-2-yl]-5H-pyrrolo[3,2-d]pyrimidine-7-carboxamide], the IC50 at PDE4B1 and at human PDE5 was less than 1 nM throughout.
As to `COc1ccc(C2=NN(C3CCN(C(=O)C(Cc4c[nH]c5ccccc45)NC(=O)c4c[nH]c5c(-c6c(OCC7CC7)ccc7c6OCO7)ncnc45)CC3)C(=O)C3CCCCC23)cc1OC` [Example 92, 4-[5-(cyclopropylmethoxy)-1,3-benzodioxol-4-yl]-N-[(2S)-1-{4-[(4aS,8aR)-4-(3,4-dimethoxyphenyl)-1-oxo-4^a,5,6,7,8,8^a-hexahydrophthalazin-2(1H)-yl]piperidin-1-yl}-3-(1H-indol-3-yl)-1-oxopropan-2-yl]-5H-pyrrolo[3,2-d]pyrimidine-7-carboxamide], the IC50 at PDE4B1 and at human PDE5 was less than 1 nM each time.
